Reference: article PMC5601486, “Identification of 4-phenylquinolin-2(1H)-one as a specific allosteric inhibitor of Akt” (Scientific Reports, 2017)

Tests used:
NDR1 = assay: KINOMEscan; settings: 50000 nM
Description: KINOMEscan™ selectivity screen
(§1) Briefly, Kinase-tagged T7 phage strains were grown in parallel in an E. coli host derived from the BL21 strain. E. coli were grown to log-phase and infected with T7 phage from a frozen stock and incubated with shaking at 32°C until lysis (90-150 minutes). The kinases were produced in HEK-293 cells and subsequently tagged with DNA for qPCR detection. Streptavidin-coated magnetic beads were treated with biotinylated small molecule ligands to generate affinity resins for kinase
(§2) inhibitor or DMSO control was performed in polypropylene 384-well plates for 1 hr at room temperature. After wash with PBS buffer containing 0.05% Tween 20, the beads were incubated in elution buffer (PBS containing 0.05 % Tween 20 and 0.5 μM non-biotinylated affinity ligand) for 30 minutes at room temperature. The kinase concentration in the eluates was measured by qPCR.

MET(Y1235D) = assay: KINOMEscan; settings: 50000 nM
Description: KINOMEscan™ selectivity screen
as §1, §2

ERK4 = assay: KINOMEscan; settings: 50000 nM
Description: KINOMEscan™ selectivity screen
(§3) The assay was perfor med at DiscoveRx Corporation according the methods published previously5. Briefly, Kinase-tagged T7 phage strains were grown in parallel in an E. coli host derived from the BL21 strain. E. coli were grown to log-phase and infected with T7 phage from a frozen stock and incubated with shaking at 32°C until lysis (90-150 minutes). The kinases were produced in HEK-293 cells and subsequently tagged with DNA for qPCR detection. Streptavidin-coated magnetic beads were treated with biotinylated small molecule ligands to generate affinity resins for kinase
as §2

MTOR = assay: KINOMEscan; settings: 50000 nM
Description: KINOMEscan™ selectivity screen
as §3, §2

PIP5K1A = assay: KINOMEscan; settings: 50000 nM
PLK4 = assay: KINOMEscan; settings: 50000 nM
Description: KINOMEscan™ selectivity screen
as §3, §2

NEK7 = assay: KINOMEscan; settings: 50000 nM
Description: KINOMEscan™ selectivity screen
as §3, §2

FYN = assay: KINOMEscan; settings: 50000 nM
Description: KINOMEscan™ selectivity screen
as §3, §2

LATS1 = assay: KINOMEscan; settings: 50000 nM
Description: KINOMEscan™ selectivity screen
as §3, §2

PFTAIRE2 = assay: KINOMEscan; settings: 50000 nM
Description: KINOMEscan™ selectivity screen
as §3, §2

ERBB4 = assay: KINOMEscan; settings: 50000 nM
Description: KINOMEscan™ selectivity screen
as §3, §2

MYLK2 = assay: KINOMEscan; settings: 50000 nM
Description: KINOMEscan™ selectivity screen
as §3, §2

EPHA5 = assay: KINOMEscan; settings: 50000 nM
Description: KINOMEscan™ selectivity screen
as §3, §2

TSSK3 = assay: KINOMEscan; settings: 50000 nM
Description: KINOMEscan™ selectivity screen
as §3, §2

[1] = tested on: EGFR(L747-E749del, A750P); assay: KINOMEscan; settings: 50000 nM
Description: KINOMEscan™ selectivity screen
as §3, §2

RIPK2 = assay: KINOMEscan; settings: 50000 nM
Description: KINOMEscan™ selectivity screen
as §3, §2

Neuro 2A cells = assay: MTS cell proliferation assay; format: cell-based, Mouse; settings: 1 day
Description: Neuro 2A cells or NIH/3T3 cells (ATCC) were seeded at various confluency in a 96-well plate in 100 µL DMEM containing 5% FBS or 10% FBS with 1% penicillin streptomucin, respectively, at 37 °C in a 5% CO2 and 95% humidity incubator for 18 hr. To each well 1 µL inhibitor with various concentrations or DMSO was added. The final concentrations of the tested inhibitors were 0, 5, 10, 20, 40 and 80 µM for G7 and LY, and 0, 5, 10, 20, 40 and 80 nM for Torin1, based on their respective IC50 values (~µM for G7 and LY and ~ nM for Torin 1). After 24 hr, 20 µL of CellTiter 96® AQueous One Solution Reagent (Promega) were added. The plate was placed in the incubator for 2 h and absorbance at 490 nm was measured with a Synergy HT Microplate Reader (Bio-Tek).

NIM1 = assay: KINOMEscan; settings: 50000 nM
Description: KINOMEscan™ selectivity screen
as §1, §2

TAOK3 = assay: KINOMEscan; settings: 50000 nM
Description: KINOMEscan™ selectivity screen
as §3, §2

CSNK2A2 = assay: KINOMEscan; settings: 50000 nM
Description: KINOMEscan™ selectivity screen
as §1, §2

ABL1-nonphosphorylated = assay: KINOMEscan; settings: 50000 nM
Description: KINOMEscan™ selectivity screen
as §3, §2

TNK2 = assay: KINOMEscan; settings: 50000 nM
Description: KINOMEscan™ selectivity screen
as §3, §2

CDC2L2 = assay: KINOMEscan; settings: 50000 nM
Description: KINOMEscan™ selectivity screen
as §1, §2

ANKK1 = assay: KINOMEscan; settings: 50000 nM
Description: KINOMEscan™ selectivity screen
as §3, §2

PIK3CA = assay: KINOMEscan; settings: 50000 nM
Description: KINOMEscan™ selectivity screen
as §3, §2

PYK2 = assay: KINOMEscan; settings: 50000 nM
Description: KINOMEscan™ selectivity screen
Briefly, Kinase-tagged T7 phage strains were grown in parallel in an E. coli host derived from the BL21 strain. E. coli were grown to log-phase and infected with T7 phage from a frozen stock and incubated with shaking at 32°C until lysis (90-150 minutes). The kinases were produced in HEK-293 cells and subsequently tagged with DNA for qPCR detection.
After wash with PBS buffer containing 0.05% Tween 20, the beads were incubated in elution buffer (PBS containing 0.05 % Tween 20 and 0.5 μM non-biotinylated affinity ligand) for 30 minutes at room temperature. The kinase concentration in the eluates was measured by qPCR.

PCTK1 = assay: KINOMEscan; settings: 50000 nM
Description: KINOMEscan™ selectivity screen
as §1, §2

DYRK1B = assay: KINOMEscan; settings: 50000 nM
Description: KINOMEscan™ selectivity screen
(§4) The assay was perfor med at DiscoveRx Corporation according the methods published previously5. […] The kinases were produced in HEK-293 cells and subsequently tagged with DNA for qPCR detection. Streptavidin-coated magnetic beads were treated with biotinylated small molecule ligands to generate affinity resins for kinase
as §2

MYO3B = assay: KINOMEscan; settings: 50000 nM
Description: KINOMEscan™ selectivity screen
as §3, §2

PLK3 = assay: KINOMEscan; settings: 50000 nM
Description: KINOMEscan™ selectivity screen
as §1, §2

MLCK = assay: KINOMEscan; settings: 50000 nM
Description: KINOMEscan™ selectivity screen
as §3, §2

VRK2 = assay: KINOMEscan; settings: 50000 nM
Description: KINOMEscan™ selectivity screen
as §3, §2

ADCK4 = assay: KINOMEscan; settings: 50000 nM
Description: KINOMEscan™ selectivity screen
as §3, §2

AMPK-alpha1 = assay: KINOMEscan; settings: 50000 nM
Description: KINOMEscan™ selectivity screen
as §3, §2

EPHB3 = assay: KINOMEscan; settings: 50000 nM
Description: KINOMEscan™ selectivity screen
as §4, §2

TNK1 = assay: KINOMEscan; settings: 50000 nM
Description: KINOMEscan™ selectivity screen
as §3, §2

PI3K = tested on: T1, PI3K; assay: ADP-Glo kinase assay; format: biochemical; settings: 50 µM
T1 construct: purchased SignalChem P27-10H-05

BRK = assay: KINOMEscan; settings: 50000 nM
Description: KINOMEscan™ selectivity screen
as §3, §2

CAMK1 = assay: KINOMEscan; settings: 50000 nM
Description: KINOMEscan™ selectivity screen
as §3, §2

KIT(L576P) = assay: KINOMEscan; settings: 50000 nM
Description: KINOMEscan™ selectivity screen
as §1, §2

CAMK2A = assay: KINOMEscan; settings: 50000 nM
Description: KINOMEscan™ selectivity screen
as §3, §2

PIK3CA(E542K) = assay: KINOMEscan; settings: 50000 nM
Description: KINOMEscan™ selectivity screen
as §3, §2

CAMKK1 = assay: KINOMEscan; settings: 50000 nM
Description: KINOMEscan™ selectivity screen
as §3, §2

MARK1 = assay: KINOMEscan; settings: 50000 nM
Description: KINOMEscan™ selectivity screen
as §4, §2

HCK = assay: KINOMEscan; settings: 50000 nM
Description: KINOMEscan™ selectivity screen
as §1, §2

## Oc1cc(-c2ccccc2)c2ccccc2n1 [G7, 4-phenylquinolin-2(1H)-one]
NDR1
  Percent Control: 83%
MET(Y1235D)
  Percent Control: 59%
ERK4
  Percent Control: 86%
MTOR
  Percent Control: 100%
PIP5K1A
  Percent Control: 70%
PLK4
  Percent Control: 80%
NEK7
  Percent Control: 78%
FYN
  Percent Control: 89%
LATS1
  Percent Control: 87%
PFTAIRE2
  Percent Control: 81%
ERBB4
  Percent Control: 86%
MYLK2
  Percent Control: 100%
EPHA5
  Percent Control: 95%
TSSK3
  Percent Control: 95%
[1]
  Percent Control: 89%
RIPK2
  Percent Control: 82%
Neuro 2A cells
  proliferation of Neuro 2A cells: inhibited the proliferation
NIM1
  Percent Control: 90%
TAOK3
  Percent Control: 100%
CSNK2A2
  Percent Control: 70%
ABL1-nonphosphorylated
  Percent Control: 81%
TNK2
  Percent Control: 99%
CDC2L2
  Percent Control: 88%
ANKK1
  Percent Control: 73%
PIK3CA
  Percent Control: 82%
PYK2
  Percent Control: 93%
PCTK1
  Percent Control: 91%
DYRK1B
  Percent Control: 76%
MYO3B
  Percent Control: 100%
PLK3
  Percent Control: 83%
MLCK
  Percent Control: 78%
VRK2
  Percent Control: 82%
ADCK4
  Percent Control: 96%
AMPK-alpha1
  Percent Control: 90%
EPHB3
  Percent Control: 96%
TNK1
  Percent Control: 100%
PI3K
  effect on PI3K activity: no effects
BRK
  Percent Control: 96%
CAMK1
  Percent Control: 84%
KIT(L576P)
  Percent Control: 22%
CAMK2A
  Percent Control: 87%
PIK3CA(E542K)
  Percent Control: 82%
CAMKK1
  Percent Control: 80%
MARK1
  Percent Control: 76%
HCK
  Percent Control: 100%
